Reference: patent US10596166B2, “Combination composition comprising huperzine” (priority 2015, dated 2020)

System: primary cortical neurons injured by glutamate
Test: glutamate toxicity on primary cortical neurons (neuron survival, neurite network)
Type: cell-based, rat
Conditions: for effect on glutamate toxicity: at the lowest concentrations; for non-active concentration: see example 2
Method: Rat cortical neurons were cultured as described by Singer et al., 1999 [J. Neuroscience 19(7), 2455-2463] and Callizot et al. 2013 [J. Neurosc. Res. 91(5), 706-716].
Briefly, pregnant females (Wistar; JanvierLabs, St Berthevin, France) at 15 days of gestation were killed by cervical dislocation. Foetuses were collected and immediately placed in ice-cold L15 Leibovitz medium (Pan Biotech, Aidenbach, Germany, Batch: 4120413) with a 2% penicillin (10,000 U/ml) and streptomycin (10 mg/ml) solution (PS; Pan Biotech, Aidenbach, Germany) and 1% bovine serum albumin (BSA; Pan Biotech, Aidenbach, Germany). Cortex was treated for 20 min at 37° C. with a trypsin-EDTA (Pan Biotech, Aidenbach, Germany) solution at a final concentration of 0.05% trypsin and 0.02% EDTA. The dissociation was stopped by addition of Dulbecco's modified Eagle's medium (DMEM) with 4.5 g/liter of glucose (Pan Biotech, Aidenbach, Germany), containing DNAse I grade II (final concentration 0.5 mg/ml; Pan Biotech, Germany) and 10% fetal calf serum (FCS; Invitrogen, Cergy Pointoise, France). Cells were mechanically dissociated by three forced passages through the tip of a 10-ml pipette. Cells were then centrifuged at 515 g for 10 min at 4° C. The supernatant was discarded, and the pellet was resuspended in a defined culture medium consisting of Neurobasal medium (Invitrogen, Cergy Pointoise, France) with a 2% solution of B27 supplement (Invitrogen, Cergy Pointoise, France), 2 mmol/liter of L-glutamine (Pan Biotech, Aidenbach, Germany), 2% of PS solution, and 10 ng/ml of brain-derived neurotrophic factor (BDNF; Pan Biotech, Aidenbach, Germany). Viable cells were counted in a Neubauer cytometer, using the trypan blue exclusion test. The cells were seeded at a density of 30,000 per well in 96-well plates precoated with poly-L-lysine (Corning Biocoat, Tewksbury, USA) and were cultured at 37° C. in an air (95%)-CO2 (5%) incubator. The medium was changed every 2 days.
On day 13, the cultures were exposed for 20 minutes to glutamate 40 μM in the absence or presence of Huperzia serrata extracts. Then the cells were washed out and new fresh medium containing or not Huperzia serrata extracts was added for another 48 hours.
The cells were then fixed by a cold solution ethanol/acetic acid (95:5 v/v) for 5 minutes at −20° C. After permeabilization with 0.1% of saponin (Sigma), cells were incubated for 2 hours with mouse monoclonal antibody against microtubule-associated-protein 2 (MAP 2; Sigma) at dilution of 1/400 in PBS containing 1% foetal calf serum (Invitrogen) and 0.1% of saponin.
Neuron survival assessment: For each condition 6 wells were assessed, 20 pictures per well were taken using InCell Analyzer™ 1000 (GE Healthcare) with 20× magnification to assess cell bodies (MAP 2 staining). Analysis of picture was done using Developer software (GE Healthcare), the number of neurons per picture was recorded. A mean of neuron number of the 20 pictures was automatically calculated per well, then one data was provided per well (total of 6 raw data were provided per condition).
Neurite network length assessment: For each condition 6 wells were assessed, 20 pictures per well were taken using InCell Analyzer™ 1000 with 20× magnification (20 pictures at X20 representing ˜80% of the total well surface), to assess MAP-2 staining. Analysis of picture was done using Developer software, the total neurite length per picture was recorded. A mean neurite length of the 20 pictures was automatically calculated per well, then one data was provided per well (total of 6 raw data were provided per condition).
The protocol used in these assays is the same as described in example 1. After 13 days of neuron culture, the candidate compounds were solved in DMSO and diluted in culture medium. […]

SMILES | effect on glutamate toxicity | neurite network (glutamate 40 μM, 20 min, 1 μM and 5 μM) | non-active concentration (glutamate 40 μM, 20 min) | neurite network (glutamate 40 μM, 20 min, 10 μM and 100 μM) | lowest active dose (glutamate 40 μM, 20 min) | neurite network (glutamate 40 μM, 20 min, 10 nM) | neuron survival (glutamate 40 μM, 20 min, 10 nM)
O=C(O)/C=C/c1ccc(O)c(O)c1 [CA, caffeic acid] | little or no effect | moderate effect | 500 pM | – | – | – | –
COc1cc(/C=C/C(=O)O)ccc1O [FA, ferulic acid] | little or no effect | – | 10000 pM | significant protective effect | – | – | –
C/C=C1\[C@H]2C=C(C)C[C@]1(N)c1ccc(=O)[nH]c1C2 [HA, huperzine A, reference compound] | little or no effect | – | 10 pM | – | 1 nM | > 90% | 94%
